US6583132B1, “Oxidant scavengers” (Duke University, priority 1993, dated 2003)

Assays:
[1] = CNS oxygen toxicity, 6 ATA hyperbaric oxygen exposure; type: in vivo, mice; settings: for Survival: 6 ATA oxygen 25 minutes, DDC 400 mg/kg i.p. or LNNA 20 mg/kg i.p.
Description: Oxygen exposures: 7-8 week old mice were exposed to hyperbaric oxygen five at a time in a small-animal chamber (Bethlehem, Pa.). After flushing the chamber with pure oxygen, compression to 50 meters (6 ATA) was performed within 5 minutes. The oxygen concentration in the chamber was monitored continuously with a Servomex oxygen analyzer (model 572, Sybron, Norwood, Mass.) and maintained at ≳99%. The carbon dioxide concentration was analyzed from intermittent samples of chamber gas with an IR detector (IR Industries, Santa Barbara, Calif.) and was not allowed to rise above 0.1%. The chamber temperature was maintained at 25-26° C., but the compression of oxygen in the chamber raised the temperature to 30-32° C. transiently, but an environmental control system restored the normal chamber temperature within 3 minutes. […] The mice were observed continuously for signs of oxygen toxicity from the beginning of the exposure until 4 hours after removal from the chamber. The time to the first generalized convulsion (seizure latency) and the time to death were recorded. These exposure conditions are designed to cause CNS oxygen toxicity without appreciable evidence of pulmonary oxygen toxicity.
Treatment with diethyldithiocarbamate: One hour prior to exposure to 6 ATA oxygen, mice were given either i.p. injections of either 0.008 cc/g saline or 400 mg/kg diethyldithiocarbamate dissolves in normal saline (0.008 cc/g). The mice were then exposed to 6 ATA oxygen for 25 minutes as described above.
Treatment with β-mercaptoethanol: One hour prior to exposure to 6 ATA oxygen, mice were given either i.p. injections of 0.008 cc/g saline or 180 mg/kg β-mercaptoethanol (0.008 cc/g). This dose of β-mercaptoethanol was selected because it contains an equal number of reducing thiols as the dose of diethyldithiocarbamate. The mice were then exposed to 6 ATA oxygen for 30 minutes as described above.
Treatment with N-ω-nitro-L-arginine, an inhibitor of nitric oxide synthase: Ten minutes prior to beginning compression, 0.008 cc/g saline or 20 mg/kg (0.008 cc/g) N-ω-nitro-L-arginine dissolved in sterile water was given i.p to the transgenic and nontransgenic mice. Mice were then exposed at 6 ATA oxygen for 25 or 75 minutes as described above.

[2] = Cold-induced brain edema; type: in vivo, mice; settings: for Edema Index: mean ± standard error; for less edema formation compared to saline treated controls: pretreatment i.p.
Description: Injury model: Young (6-7 week) mice (see Example I) were anesthetized with 60 mg/kg pentobarbital (Nembutal, Abbott Laboratories, Chicago, Ill.). An incision was then made in the scalp and a steel rod 20 cm long, 3 mm in diameter, equilibrated in liquid nitrogen with an 8 cm bath of liquid nitrogen 4 cm from the end of the rod, was placed on the skull over the right cerebral hemisphere for 30 seconds. The skin incision was then sutured.
Two hours after the injury the mouse was given an additional dose of pentobarbital. The chest cavity was opened, the lungs were excised, and the mouse was then perfused with 20 ml saline through the left ventricle of the heart. The brain was then removed and the cerebellum was excised. The right (R) and left (L) cerebral hemispheres were separated and immediately weighed (wet weight, W). Each hemisphere was then dried at 70° C. for 2-3 days in a hot air oven until a constant weight was achieved (dry weight, D). An index of edema (I) was then calculated as shown in equation 13.
I=(W/D R−W/DL)/(W/DL)×100 [13]
Chemical treatments: Six groups of experiments were conducted to investigate the importance of extracellular superoxide, iron, and nitric oxide in cold-induced brain edema. In all groups, drugs were dissolved in saline and injected at 0.008 cc/g 15 minutes prior to cold injury. In Group 1, edema formation of EC-SOD transgenic mice was compared with that of nontransgenic littermates. Group 2 compared edema formation between wild-type (C57BL/6×C3H)F1 mice treated with saline and (C57BL/6×C3H)F1 mice treated with 0.33 mg/g deferoxamine (0.51 μmoles/g). Group 3 compared (C57BL/6×C3H)F1 mice treated with saline to (C57BL/6×C3H)F1 mice treated with 0.51 μmoles/g Fe^3÷− saturated deferoxamine. Group 4 consisted of (C57BL/6×C3H)F1 mice treated with saline and (C57BL/6×C3H)F1 mice treated with 0.02 mg/g N-ω-nitro-L-arginine methyl ester. Group 5 consisted of (C57BL/6×C3H)F1 mice treated with saline and (C75BL/6×C3H)F1 mice treated with 0.02 mg/g N-ω-nitro-L-arginine methyl ester plus 0.05 mg/g L-arginine. Group 6 compared edema formation between nontransgenic mice, EC-SOD transgenic mice treated with saline, and EC-SOD transgenic mice treated with 0.02 mg/g N-ω-nitro-L-arginine methyl ester.
Iron saturated deferoxamine was made by dissolving equimolar amounts of deferoxamine and then ferric chloride in saline. Saturation of deferoxamine with ferric iron was determined spectrophotometrically be measuring the absorbance at 425 nm (ε=2500 M^−1 cm^−1 for Fe3+-deferoxamine) (Monzyk and Crumbliss, J. Amer. Chem. Soc. 104:4921 (1982)).

[3] = system: rat cortical cells; assay: Neurotoxicity (LDH release) in cortical cell culture; type: cell-based; settings: for NMDA-induced LDH release: 1 mM NOS inhibitor
Description: (§1) Tissue culture: Mixed neuronal and glial cultures were prepared from embryonic day-18 rat cerebral cortices (Sprague-Dawley, Zivic Miller). Briefly, the cerebral cortices were dissected and enzymatically dissociated by incubation in Ca^++-, Mg^++-free Hank's balanced salt solution (HBSS) supplemented with 10 mM HEPES and 0.25% trypsin for 20 min. at 37° C. The tissue was rinsed and dispersed into single cell suspension by gentle passage through a fire polished Pasteur pipette. The cell suspension was centrifuged and resuspended in Minimum Essential Media (MEM), containing Earle's salts supplemented with 3 g/L glucose, 5% horse serum and 5% fetal bovine serum (growth media). The cells were plated in poly-D-lysine-coated multi-well plates: 12-well plates for aconitase measurement, and 24 well plates for toxicity experiments. Cells were maintained at 37° C. in a humidified incubator with 5% CO2/95% air in growth media. Media was not replaced so as to reduce glial overgrowth and neuronal loss. Mature cells (14-17 days in vitro) were used for all experiments.
(§2) Cell treatment: The growth media was replaced with MEM supplemented with 25 mM glucose (MEM-g). For both neurotoxicity studies and aconitase measurement, cells were incubated in the designated treatment for the indicated length of time at 37° C. Unless otherwise specified, antagonists or SOD-mimetics were added 15 min. prior to agonists. For measurement of neurotoxicity, cells were incubated with treatments for 18 hr at 37° C. in MEM-g. To access the ability of antagonists to inhibit acute NMDA toxicity or rescue cells from an ongoing NMDA insult, an alternate paradigm of NMDA treatment was used in addition to the one describe above. In this paradigm, growth media was replaced with HBSS^+ (Ca^++-, Mg^++-free Hank's Balanced Salt Solution supplemented with 2 mM CaCl2, 1 mM NaHCO3, 10 mM HEPES and 5 μM glycine), cells were treated with vehicle or 100 μM NMDA for 15 min. after which HBSS^+ was replaced with MEM-g and cells were returned to the incubator for 18 additional hrs. Antagonsists or SOD-mimetics were added to the cells 15 min. before NMDA exposure or 15, 30 or 60 min. following final media replacement. For determination of Ca^++-dependence, cells were incubated in HBSS^+ with no added Ca^++. When kainate (KA) was used as an agonist, 100 μM D-APV was routinely included to block secondary NMDA receptor activation. Catalase (100 U/ml) was always included when xanthine plus xanthine oxidase (X+XO) was used as a treatment to rule out the contribution of hydrogen peroxide.
Neurotoxicity studies: Neurotoxicity was determined by the measurement of LDH released in the supernatant media as previously described (Patel et al, Toxicol. Appl. Pharmacol. 115:124 (1991) and Neurotoxicology 14:35 (1992)). LDH was measured by the method of Vassault, Lactate dehydrogenase. In: Methods of Enzymatic Analysis, Bergmeyer HU (ed), Verlag Chemie, Weinheim, pp. 118-126 (1983). Additionally, cell death was confirmed with ethidium-1 homodimer (EthD-1). Briefly, the cells were washed with HBSS, loaded with 20 μM EthD-1 for 30 min,. rinsed and viewed through fluorescence optics. The number of dead cells labeled with EthD-1 were counted in 4-6 randomly selected fields, the numbers averaged to give an estimate of cell death and the experiment was repeated 3 times.

[4] = system: aconitase; assay: Aconitase activity in cortical cell lysates; type: cell-based, rat; settings: for decrease in aconitase activity: PQ^++ 3 hrs, NMDA 1 hr, KA 6 hrs; for NMDA-induced aconitase inactivation: 1 mM NOS inhibitor
Description: as §1, §2
Aconitase measurement: For the measurement of aconitase, following treatment with agents, media was removed and cells lysed in ice-cold 50 mM, Tris/HCl, pH 7.4 containing 0.6 mM MnCl2, 1 mM L-cysteine, 1 mM citrate and 0.5% Triton-X 100. The aconitase activity of cell lysates was measured spectrophotometrically by monitoring the formation of cis-aconitate from isocitrate at 240 nm in 50 mM Tris/HCl, pH 7.4, containing 0.6 mM MnCl2 and 20 mM isocitrate at 25° C. (Kreb and Holzach, Biochem. J. 52:527 (1952); Gardner and Fridovich, J. Biol. Chem. 267:8757 (1992)). […] Aconitase activity in cortical cell lysates was inhibited by 0.1 mM potassium ferricyanide or by boiling of sample.

[5] = system: J774 macrophages; assay: Mitochondrial respiration (MTT) in J774 macrophages; type: cell-based; settings: IFN alone, 10 U/ml
Description: Cell culture: J774 macrophages were cultured in DMEM medium, supplemented with L-glutamine (3.5 mmol/L) and 10% fetal calf serum. Cells were cultured in 96-well plates (200 μl medium/well) until confluence. To induce the inducible isoform of nitric oxide synthase (iNOS), fresh culture medium containing E. coli LPS (011:B4, 10 μg/ml) alone or in combination with murine γ-interferon (γ-IFN, 10 U/ml) was added in the presence or absence of the NOS inhibitor, the SOD mimetic of the combination of the two compounds for 24 h. Moreover, cells were exposed to the NO donor compounds S-nitroso-N-acetyl-DL-penicillamine (SNAP) (3 mM) and diethylamine:NO NONOate (DNO) (3 mM) for 24 h or to authentic peroxynitrite (1 mM) for 1 h). Nitride/nitrate concentration in the medium and mitochondrial respiration were then measured as described below.
Measurement of mitochondrial respiration: Cell respiration was assessed by the mitochondrial-dependent reduction of 3-(4,5-dimethylthiazol-2-yl)-2,5-diphenyltetrazolium bromide (MTT) to formazan. Cells in 96-well plates were incubated at 37° C. with MTT (0.2 mg/ml) for 1 hour. Culture medium was removed by aspiration and the cells were solubilized in DMSO (100 μl). The extent of reduction of MTT to formazan within cells was quantitated by the measurement of OD550. All measurements were corrected for the interference of MnTBAP at this wavelength.

N=C(N)NCCC[C@H](N)C(=O)O [L-arginine]
effect of excess L-arginine on protection by N-ω-nitro-L-arginine ([1]; 20 mg/kg LNNA plus 50 mg/kg L-arginine, 6 ATA oxygen): could be reversed

CC(=O)N(O)CCCCCNC(=O)CCC(=O)N(O)CCCCCNC(=O)CCC(=O)N(O)CCCCCN [Deferoxamine, deferoxamine]
Edema Index ([2]; wild-type mice, 0.51 μmoles/g, 15 minutes prior to cold injury): 3.41 ± 0.49 | less edema formation compared to saline treated controls ([2]; wild-type mice): 43%

C[C@]12N[C@H](Cc3ccccc31)c1ccccc12 [MK801, reference compound]
reduction of LDH release / protective effect ([3]; added 15 min. after 15 min. 100 μM NMDA, 200 μM MnTBAP, 10 μM MK801): 17%

OCCS [β-mercaptoethanol]
protection against CNS oxygen toxicity ([1]; 180 mg/kg i.p., 6 ATA oxygen 30 minutes): did not protect against CNS oxygen toxicity

C=C(C)[C@H]1CN[C@H](C(=O)O)[C@H]1CC(=O)O [KA, kainate]
decrease in aconitase activity [4]: 42%

N[C@H](CCCP(=O)(O)O)C(=O)O [D-APV, reference compound]
LDH release ([3]; condition "pre", 100 μM D-APV, 100 μM NMDA 15 min.): complete blockade

NC(=NCCC[C@H](N)C(=O)O)N[N+](=O)[O-] [N-ω-nitro-L-arginine]
difference in sensitivity between transgenic and nontransgenic mice ([1]; 20 mg/kg i.p., 6 ATA oxygen 75 minutes): abolished the difference in sensitivity | Survival ([1]; nontransgenic mice): 100% | seizure latency ([1]; transgenic and nontransgenic mice, 20 mg/kg i.p., 6 ATA oxygen): significantly delayed | Survival ([1]; transgenic mice): 100% | seizure latency ([1]; wild-type mice, 20 mg/kg i.p., 6 ATA oxygen): 13.50 ± 5.6 min | mortality ([1]; wild-type mice, 20 mg/kg i.p., 90 minutes of 6 ATA oxygen): 50% | mortality ([1]; wild-type mice, 20 mg/kg i.p., 2 hours of 6 ATA oxygen): 100% | NMDA-induced aconitase inactivation [4]: unchanged | NMDA-induced LDH release [3]: unchanged

COC(=O)[C@@H](N)CCCNC(=N)N[N+](=O)[O-] [LNAME, N-ω-nitro-L-arginine methyl ester]
Edema Index ([2]; EC-SOD transgenic mice, 20 mg/kg 15 minutes prior to cold-induced injury): 4.30 ± 0.96 | Edema Index ([2]; wild-type mice, 0.02 mg/g LNAME, with or without 0.05 mg/g L-arginine): 3.65 ± 0.51 | less edema formation compared to saline treated controls ([2]; wild-type mice): 37% | NMDA-induced aconitase inactivation [4]: unchanged | NMDA-induced LDH release [3]: unchanged

C[n+]1ccc(-c2cc[n+](C)cc2)cc1 [PQ^++, methylviologen (paraquat)]
decrease in aconitase activity [4]: 70%

CN[C@H](CC(=O)O)C(=O)O [NMDA, N-methyl-D-aspartate]
decrease in aconitase activity [4]: 40%

B1: IFN: murine γ-interferon (protein, UniProt P01580 23-155, looked up)
Interferon gamma: HGTVIESLESLNNYFNSSGIDVEEKSLFLDIWRNWQKDGDMKILQSQIISFYLRLFEVLKDNQAISNNISVIESHLITTFFSNSKAKKDAFMSIAKFEVNNPQVQRQAFNELIRVVHQLLPESSLRKRKRSRC
suppression of respiration [5]: < 15%
